The source of these data is PMC4295010 (Journal of the American Chemical Society, 2014).

Data set [1] has as its system HeLa cells. Kind of data set: MTT cell viability, HeLa. Format: cell-based.
Data set [2] in a line: aggregation of 1 by UV absorption change of the supernatant. In kind it is physicochemical. Particulars: over time, Figure S3, varying [Van]0.
Data set [3] has as its system HeLa cells. Kind of data set: NBD-Van staining of aggregates on HeLa cells, confocal. Format: cell-based. Particulars: NBD-Van (6 μM) alone.
Data set [4] can be described thus: isothermal titration calorimetry. Format: binding. Conditions: ITC of 2 with Van, 25 °C, Figure S6.

Where a SMILES comes first, the peptide text is derived from it. [ ]: non-standard residue; d: D form.

Turning to `CN[C@H](CC(C)C)C(=O)N[C@H]1C(=O)N[C@@H](CC(N)=O)C(=O)N[C@H]2C(=O)N[C@H]3C(=O)N[C@H](C(=O)N[C@H](C(=O)O)c4cc(O)cc(O)c4-c4cc3ccc4O)[C@H](O)c3ccc(c(Cl)c3)Oc3cc2cc(c3O[C@@H]2O[C@H](CO)[C@@H](O)[C@H](O)[C@H]2O[C@H]2C[C@](C)(N)[C@H](O)[C@H](C)O2)Oc2ccc(cc2Cl)[C@H]1O` [Van, vancomycin, reference compound], in data set [1] (alone, concentration as high as 500 μM, MTT), the cytotoxicity entry is listed as “innocuous”. For the same compound, in data set [2], the “amount of Van in the aggregates” value is “decreases with time”.

Turning to “7-nitrobenzofurazan-derivatized vancomycin [NBD-Van]”, the “fluorescent aggregates with HeLa cells” value in data set [3] was “few aggregates on the cells”.

As for `CC(=O)N[C@@H](CCCCN)C(=O)NCC(=O)NCC(=O)N[C@H](C)C(=O)N[C@H](C)C(=O)O` [compound 2] (Ac-KGG[dA][dA]-OH), in data set [1] (with addition of Van at 500 μM), the inhibition of proliferation entry was “scarcely inhibits”. In addition, in data set [1] (without addition of Van, at 500 μM), the inhibition of proliferation entry is listed as “scarcely inhibits”. Moreover, in data set [4], binding was characterised by a dissociation constant (Kd) of 135 µM and the binding ratio n is reported as 1.

The term Kd denotes the free concentration of one partner at which half of the binding sites on the other are occupied at equilibrium, for simple one-to-one binding. Lower therefore signals higher affinity.
